According to ChEMBL document CHEMBL1201862, “PubChem BioAssay data set” (2004):
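All cell lines were grown in 96-well plates and treated with compound for 48 hours. GI50: concentration for 50% inhibition of growth.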 Calls of active or inactive are those of the source. No stated cut-off is given here; in the data, active = GI50 up to about 1.1 µM and inactive = higher.

Key:
Assay in all cases: DTP human tumour cell line panel, 48 h
PC-3 = test system: PC-3
Hs-578T = test system: Hs-578T
HCT-15 = test system: HCT-15
TK-10 = test system: TK-10
U-251 = test system: U-251
NCI-H23 = test system: NCI-H23
SF-268 = test system: SF-268
SK-MEL-28 = test system: SK-MEL-28
HT-29 = test system: HT-29
EKVX = test system: EKVX
K562 = test system: K562
RXF 393 = test system: RXF 393
DU-145 = test system: DU-145
MCF7 = test system: MCF7
SF-539 = test system: SF-539
SW-620 = test system: SW-620
OVCAR-3 = test system: OVCAR-3
SK-MEL-5 = test system: SK-MEL-5
CCRF-CEM = test system: CCRF-CEM
MOLT-4 = test system: MOLT-4
T47D = test system: T47D
A549 = test system: A549
MDA-N = test system: MDA-N
UACC-257 = test system: UACC-257
LOX IMVI = test system: LOX IMVI
UO-31 = test system: UO-31
RPMI-8226 = test system: RPMI-8226
ACHN = test system: ACHN
OVCAR-4 = test system: OVCAR-4
HCT-116 = test system: HCT-116
SNB-75 = test system: SNB-75
786-0 = test system: 786-0
HL-60 = test system: HL-60
NCI/ADR-RES = test system: NCI/ADR-RES
SF-295 = test system: SF-295
UACC-62 = test system: UACC-62
NCI-H460 = test system: NCI-H460
HOP-62 = test system: HOP-62
BT-549 = test system: BT-549
SN12C = test system: SN12C
SK-OV-3 = test system: SK-OV-3
MDA-MB-231 = test system: MDA-MB-231
SK-MEL-2 = test system: SK-MEL-2
KM12 = test system: KM12
OVCAR-8 = test system: OVCAR-8
NCI-H226 = test system: NCI-H226
NCI-H522 = test system: NCI-H522
COLO 205 = test system: COLO 205
HCC 2998 = test system: HCC 2998
M14 = test system: M14
HOP-92 = test system: HOP-92
MDA-MB-435 = test system: MDA-MB-435
IGROV-1 = test system: IGROV-1
CAKI-1 = test system: CAKI-1
SNB-19 = test system: SNB-19
OVCAR-5 = test system: OVCAR-5
A498 = test system: A498
Malme-3M = test system: Malme-3M

O=C1/C(=C/c2ccc3c(c2)OCO3)Sc2scc(-c3ccc(O)c(O)c3)[n+]21
GI50 (PC-3): 4.38 µM (inactive)
GI50 (Hs-578T): 7.13 µM (inactive)
GI50 (HCT-15): 1.63 µM
GI50 (TK-10): 2.04 µM (inactive)
GI50 (U-251): 4.62 µM (inactive)
GI50 (NCI-H23): 2.69 µM (inactive)
GI50 (SF-268): 3.9 µM (inactive)
GI50 (SK-MEL-28): 3.08 µM (inactive)
GI50 (HT-29): 3.74 µM (inactive)
GI50 (EKVX): 2.67 µM (inactive)
GI50 (K562): 0.506 µM (active)
GI50 (RXF 393): 3.11 µM (inactive)
GI50 (DU-145): 4.44 µM (inactive)
GI50 (MCF7): 3.22 µM (inactive)
GI50 (SF-539): 2.31 µM (inactive)
GI50 (SW-620): 1.99 µM (inactive)
GI50 (OVCAR-3): 4.61 µM (inactive)
GI50 (SK-MEL-5): 2.54 µM (inactive)
GI50 (CCRF-CEM): 0.264 µM (active)
GI50 (MOLT-4): 0.927 µM (active)
GI50 (T47D): 2.97 µM (inactive)
GI50 (A549): 11.1 µM (inactive)
GI50 (MDA-N): 3.12 µM (inactive)
GI50 (UACC-257): 3.6 µM (inactive)
GI50 (LOX IMVI): 2.34 µM (inactive)
GI50 (UO-31): 2.29 µM (inactive)
GI50 (RPMI-8226): 1.71 µM (inactive)
GI50 (ACHN): 1.86 µM (inactive)
GI50 (OVCAR-4): 4.2 µM (inactive)
GI50 (HCT-116): 1.96 µM (inactive)
GI50 (SNB-75): 0.644 µM (active)
GI50 (786-0): 1.92 µM (inactive)
GI50 (HL-60): 0.325 µM (active)
GI50 (NCI/ADR-RES): 1.87 µM (inactive)
GI50 (SF-295): 10 µM (inactive)
GI50 (UACC-62): 2.67 µM (inactive)
GI50 (NCI-H460): 3.56 µM (inactive)
GI50 (HOP-62): 6.44 µM (inactive)
GI50 (BT-549): 2.04 µM (inactive)
GI50 (SN12C): 2.04 µM (inactive)
GI50 (SK-OV-3): 8.11 µM (inactive)
GI50 (MDA-MB-231): 3.54 µM (inactive)
GI50 (SK-MEL-2): 10.8 µM (inactive)
GI50 (KM12): 2.65 µM (inactive)
GI50 (OVCAR-8): 2.99 µM (inactive)
GI50 (NCI-H226): 13.3 µM (inactive)
GI50 (NCI-H522): 1.04 µM (active)
GI50 (COLO 205): 2.55 µM (inactive)
GI50 (HCC 2998): 1.82 µM (inactive)
GI50 (M14): 3 µM (inactive)
GI50 (HOP-92): 2.65 µM (inactive)
GI50 (MDA-MB-435): 3.3 µM (inactive)
GI50 (IGROV-1): 2.7 µM (inactive)
GI50 (CAKI-1): 1.53 µM (inactive)
GI50 (SNB-19): 10.7 µM (inactive)
GI50 (OVCAR-5): 8.32 µM (inactive)

N#CC(Cc1ccccc1)N(CCC1=CCCCC1)Cc1ccccc1 (stereo not drawn)
GI50 (PC-3): 51.1 µM (inactive)
GI50 (Hs-578T): > 100 µM (inactive)
GI50 (HCT-15): 42.9 µM
GI50 (TK-10): > 100 µM (inactive)
GI50 (U-251): 81.7 µM (inactive)
GI50 (NCI-H23): 56.8 µM (inactive)
GI50 (SF-268): > 100 µM (inactive)
GI50 (SK-MEL-28): 68.4 µM (inactive)
GI50 (HT-29): 32.2 µM (inactive)
GI50 (EKVX): 56.5 µM (inactive)
GI50 (K562): 54.1 µM (inactive)
GI50 (RXF 393): 46.1 µM (inactive)
GI50 (DU-145): > 100 µM (inactive)
GI50 (MCF7): 31.2 µM (inactive)
GI50 (SW-620): 41.1 µM (inactive)
GI50 (OVCAR-3): 81.7 µM (inactive)
GI50 (SK-MEL-5): 22.3 µM (inactive)
GI50 (MOLT-4): 22.3 µM (inactive)
GI50 (T47D): 47.3 µM (inactive)
GI50 (A549): 54.7 µM (inactive)
GI50 (MDA-N): 32.4 µM (inactive)
GI50 (UACC-257): 43.8 µM (inactive)
GI50 (UO-31): > 100 µM (inactive)
GI50 (RPMI-8226): 17.9 µM (inactive)
GI50 (ACHN): > 100 µM (inactive)
GI50 (OVCAR-4): 83.9 µM (inactive)
GI50 (HCT-116): 36.8 µM (inactive)
GI50 (SNB-75): 61 µM (inactive)
GI50 (786-0): > 100 µM (inactive)
GI50 (NCI/ADR-RES): 59.6 µM (inactive)
GI50 (SF-295): 61.5 µM (inactive)
GI50 (UACC-62): 81.3 µM (inactive)
GI50 (NCI-H460): 62.2 µM (inactive)
GI50 (HOP-62): > 100 µM (inactive)
GI50 (BT-549): 71.9 µM (inactive)
GI50 (A498): > 100 µM (inactive)
GI50 (SK-OV-3): > 100 µM (inactive)
GI50 (MDA-MB-231): > 100 µM (inactive)
GI50 (SK-MEL-2): 57.8 µM (inactive)
GI50 (KM12): 43.1 µM (inactive)
GI50 (OVCAR-8): 72.1 µM (inactive)
GI50 (NCI-H522): 25.3 µM (inactive)
GI50 (COLO 205): 23.4 µM (inactive)
GI50 (HCC 2998): 28.4 µM (inactive)
GI50 (M14): 44.6 µM (inactive)
GI50 (HOP-92): 35.1 µM (inactive)
GI50 (MDA-MB-435): 22 µM (inactive)
GI50 (IGROV-1): 81.1 µM (inactive)
GI50 (CAKI-1): > 100 µM (inactive)
GI50 (Malme-3M): 40.8 µM (inactive)
GI50 (SNB-19): > 100 µM (inactive)
GI50 (OVCAR-5): 97.7 µM (inactive)
